Read-outs that look alike come from different tables or passages of the source.
Columns and labels:
WT LRRK2 = target: T1, WT LRRK2 (Mus musculus, UniProt Q5S006); test: LRRK2 degradation in WT MEFs by Western blotting; type: cell-based
T1 construct: endogenous in cells; host or cells: wild-type primary MEFs
Description: (§1) These PROTACs were then biologically evaluated in mouse embryonic fibroblasts (MEFs) by Western blotting. Briefly, MEFs were treated with compounds at 33 nM and 1 μM for 4 h (Figure 2) and 24 h (Figure S2) separately, and the intracellular level of LRRK2, phosphorylated LRRK2 at Ser935, and phosphorylated Rab10 (pRab10) at Thr73 was determined. Rab10[5],[49] is one of the bona fide substrates of LRRK2, whose phosphorylation status is directly affected by the LRRK2 kinase activity and protein level. Phosphorylation of LRRK2 at Ser935 is a well-studied biomarker site used to assess the efficacy of type 1 LRRK2 inhibitors.[30]
(§2) Primary MEFs were generated as described in a previous study.[80] Briefly, the uterine horn was collected from adult female mice at day E12.5 and transferred to a 10 cm tissue culture dish containing cold PBS. Two forceps were used to tear the yolk sacs to isolate each embryo. Forceps were cleaned thoroughly with 70% ethanol between each embryo isolation. The embryos were culled, and a tissue piece was collected in a polymerase chain reaction (PCR) tube for genotyping. The red tissue of the embryo was removed, and the remainder was minced with a scalpel blade and incubated with a 7.5 mL trypsin–ethylenediaminetetraacetic acid (EDTA) solution for 10 min in a 37 °C, 5% CO2 tissue culture incubator. The dish was removed from the incubator and checked under a light microscope for single cells. Complete media (7.5 mL) was added to the trypsinized cells, and the cell suspension was transferred to a 15 mL Falcon tube and centrifuged at 1200 rpm for 5 min at room temperature. The trypsin was aspirated, the cell pellet was resuspended in a 5 mL fresh complete media, and the cell suspension was plated in a 60 mm tissue culture dish and incubated in a 37 °C, 5% CO2 tissue culture incubator. The MEFs at this stage were considered as passage 0 and were passaged and expanded for experimental use once the genotype was confirmed by allelic sequencing and immunoblotting. MEFs were cultured in Dulbecco’s modified Eagle’s medium (DMEM) containing 10% (v/v) fetal bovine serum (FBS), 2 mM L-glutamine, 100 U/mL penicillin, and 100 μg/mL streptomycin supplemented with 1× nonessential amino acids and 1 mM sodium pyruvate.
(§3) Culturing and passaging of adherent cell lines were carried out using an aseptic technique in CL1 or CL2 (for PBMC isolation) biological safety cabinets. All cells were incubated in a 37 °C incubator with 5% CO2. Cell lines were regularly tested for mycoplasma contamination. For Western blot assay, the cells were seeded in six-well plates. For immunoprecipitation of LRRK2, SH-SY5Y cells (cultured in DMEM-F12, supplemented with 15% (v/v) FBS, 100 U/mL penicillin and 100 μg/mL streptomycin, 1× nonessential amino acids, and 1 mM sodium pyruvate) were seeded in a 10 cm dish. All cells were treated with the indicated compounds such that the final concentration of DMSO was 0.1%. Following the treatment of cells with compounds at indicated concentrations and time periods, the media was removed and the cells were washed with PBS and lysed in a 100 μL ice-cold complete lysis buffer containing 50 mM tris–HCl pH 7.4, 1 mM EGTA, 10 mM 2-glycerophosphate, 50 mM sodium fluoride, 5 mM sodium pyrophosphate, 270 mM sucrose, supplemented with 1 μg/mL microcystin-LR, 1 mM sodium orthovanadate, complete EDTA-free protease inhibitor cocktail (Roche), and 1% (v/v) Triton X-100. The cells were immediately placed on ice and were scraped and collected into 1.5 mL Eppendorf tubes. Cell lysates were incubated on ice for 10 min prior to centrifugation at 15 000g at 4 °C for 15 min.

Rab10-pThr73 = test: Rab10 dephosphorylation in WT MEFs by Western blotting; type: cell-based, mouse
Description: as §1, §2, §3

LRRK2-NanoLuc = target: T2, LRRK2-NanoLuc (Homo sapiens, UniProt Q5S007); test: NanoBRET LRRK2 target engagement assay in HEK293 cells; type: binding; details: for IC50: permeabilized HEK293 cells
T2 construct: host or cells: HEK293
Description: Figure 9 Binding affinities to VHL and LRRK2. (A) Binding affinity of the tested compounds to VHL using the FP assay. […] NanoBRET target engagement assays of tested compounds to VHL (B) and LRRK2 (C) in permeabilized and live-cell modes. The indicated compounds were titrated into HEK293 cells transfected with VHL-NanoLuc (B) or LRRK2-NanoLuc fusion (C) in the presence of VHL tracer (B) or LRRK2 tracer (C). 0.25 and 0.5 μM VHL tracers were used for the permeabilized and live mode VHL engagement assays separately. 0.125 and 0.5 μM of LRRK2 tracer were used for the permeabilized and live mode LRRK2 engagement assays separately. The fractional occupancy of the tracers is plotted against the tested compounds’ concentrations and fitted into “nonlinear regression, one site-log IC50” to obtain the IC50 values of each compound against both permeabilized and live cells, separately. Data points are presented as mean ± SEM from three independent experiments. (D) The IC50 ratios between permeabilized and live mode target engagements of each compound were used to compare their permeabilities.
For VHL and LRRK2 target engagement experiments in live and permeabilized cells, the HEK293 cells were transfected with the VHL-NanoLuc fusion vector (Promega, N275A) or LRRK2-NanoLuc fusion vector (Promega, NV3401) following Promega’s protocol and seeded into a white 384-well plate (Corning3570) at a density of 6000 cells/well. […] The filtered luminescence was measured within 10 min following the addition of the substrate on a GloMax Discover microplate reader (Promega) or a PHERAstar (BMG LABTECH) plate reader equipped with a 450 nm bandpass filter (donor) and a 600 nm long-pass filter (acceptor). […] The plates were then cooled down, and a NanoBRET NanoGlo Substrate and an Extracellular NanoLuc Inhibitor (Promega, N2160) were added before performing the same NanoBRET reading as the permeabilized mode on plate readers. […]

T2 sequence (Q5S007 whole entry): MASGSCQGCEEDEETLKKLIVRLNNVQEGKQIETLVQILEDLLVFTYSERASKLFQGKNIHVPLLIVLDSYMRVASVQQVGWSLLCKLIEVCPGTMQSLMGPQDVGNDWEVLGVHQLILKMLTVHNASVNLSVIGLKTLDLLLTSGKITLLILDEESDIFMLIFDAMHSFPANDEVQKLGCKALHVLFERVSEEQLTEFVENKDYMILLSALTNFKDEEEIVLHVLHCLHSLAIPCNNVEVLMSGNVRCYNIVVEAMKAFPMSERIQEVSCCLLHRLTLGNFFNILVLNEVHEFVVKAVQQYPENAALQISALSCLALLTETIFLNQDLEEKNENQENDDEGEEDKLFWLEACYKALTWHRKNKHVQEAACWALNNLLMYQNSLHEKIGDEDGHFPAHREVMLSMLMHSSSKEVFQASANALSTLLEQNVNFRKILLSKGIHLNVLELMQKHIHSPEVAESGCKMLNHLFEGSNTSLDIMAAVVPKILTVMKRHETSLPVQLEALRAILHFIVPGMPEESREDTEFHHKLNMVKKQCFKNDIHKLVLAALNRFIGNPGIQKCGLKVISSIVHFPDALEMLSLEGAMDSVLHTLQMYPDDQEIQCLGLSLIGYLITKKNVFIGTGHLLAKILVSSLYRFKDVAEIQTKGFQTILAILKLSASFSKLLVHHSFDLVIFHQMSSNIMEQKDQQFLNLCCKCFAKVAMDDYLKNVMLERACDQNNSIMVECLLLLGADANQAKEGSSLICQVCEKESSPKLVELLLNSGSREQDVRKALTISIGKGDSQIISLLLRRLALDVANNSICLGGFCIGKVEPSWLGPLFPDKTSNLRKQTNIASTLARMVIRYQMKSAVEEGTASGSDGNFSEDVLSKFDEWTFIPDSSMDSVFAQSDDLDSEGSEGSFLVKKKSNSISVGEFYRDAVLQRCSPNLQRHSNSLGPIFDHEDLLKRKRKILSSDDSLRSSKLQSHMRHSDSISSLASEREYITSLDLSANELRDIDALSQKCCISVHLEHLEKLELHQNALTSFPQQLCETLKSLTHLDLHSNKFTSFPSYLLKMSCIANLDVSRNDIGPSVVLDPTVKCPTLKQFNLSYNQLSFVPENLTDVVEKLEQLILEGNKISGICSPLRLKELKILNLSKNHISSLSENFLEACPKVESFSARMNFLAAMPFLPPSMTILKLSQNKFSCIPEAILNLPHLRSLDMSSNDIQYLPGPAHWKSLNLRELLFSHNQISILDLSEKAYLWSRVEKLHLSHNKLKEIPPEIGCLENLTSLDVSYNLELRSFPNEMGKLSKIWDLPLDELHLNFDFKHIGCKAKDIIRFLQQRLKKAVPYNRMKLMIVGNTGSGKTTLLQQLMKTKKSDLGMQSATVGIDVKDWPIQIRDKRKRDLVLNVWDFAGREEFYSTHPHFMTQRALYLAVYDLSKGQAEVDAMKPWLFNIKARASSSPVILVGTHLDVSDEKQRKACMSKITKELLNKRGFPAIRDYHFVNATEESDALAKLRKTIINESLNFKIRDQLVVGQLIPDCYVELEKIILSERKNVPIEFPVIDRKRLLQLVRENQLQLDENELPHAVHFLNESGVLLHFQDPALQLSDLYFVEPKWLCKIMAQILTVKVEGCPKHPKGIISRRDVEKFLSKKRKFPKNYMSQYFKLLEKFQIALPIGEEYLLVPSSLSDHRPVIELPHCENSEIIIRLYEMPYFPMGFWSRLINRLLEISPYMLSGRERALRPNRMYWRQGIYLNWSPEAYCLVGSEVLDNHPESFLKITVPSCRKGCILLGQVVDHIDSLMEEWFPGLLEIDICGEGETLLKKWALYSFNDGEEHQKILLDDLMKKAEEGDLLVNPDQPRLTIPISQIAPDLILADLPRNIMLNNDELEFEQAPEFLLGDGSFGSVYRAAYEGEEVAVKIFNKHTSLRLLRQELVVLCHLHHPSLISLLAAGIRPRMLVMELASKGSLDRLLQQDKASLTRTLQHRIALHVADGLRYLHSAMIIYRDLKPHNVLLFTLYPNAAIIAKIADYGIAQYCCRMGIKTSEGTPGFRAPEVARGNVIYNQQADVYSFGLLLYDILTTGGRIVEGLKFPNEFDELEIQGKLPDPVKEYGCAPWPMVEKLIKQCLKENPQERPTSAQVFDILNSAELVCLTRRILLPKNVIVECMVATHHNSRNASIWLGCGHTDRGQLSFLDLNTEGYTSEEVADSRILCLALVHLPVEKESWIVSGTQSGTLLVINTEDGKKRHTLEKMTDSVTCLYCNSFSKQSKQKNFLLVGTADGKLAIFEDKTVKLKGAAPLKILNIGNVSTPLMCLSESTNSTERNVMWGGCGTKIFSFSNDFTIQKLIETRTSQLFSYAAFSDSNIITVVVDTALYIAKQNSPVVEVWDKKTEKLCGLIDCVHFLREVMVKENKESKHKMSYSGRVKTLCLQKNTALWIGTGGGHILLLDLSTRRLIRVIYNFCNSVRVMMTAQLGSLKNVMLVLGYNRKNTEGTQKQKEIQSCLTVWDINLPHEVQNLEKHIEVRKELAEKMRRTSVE
T1 sequence (Q5S006 whole entry): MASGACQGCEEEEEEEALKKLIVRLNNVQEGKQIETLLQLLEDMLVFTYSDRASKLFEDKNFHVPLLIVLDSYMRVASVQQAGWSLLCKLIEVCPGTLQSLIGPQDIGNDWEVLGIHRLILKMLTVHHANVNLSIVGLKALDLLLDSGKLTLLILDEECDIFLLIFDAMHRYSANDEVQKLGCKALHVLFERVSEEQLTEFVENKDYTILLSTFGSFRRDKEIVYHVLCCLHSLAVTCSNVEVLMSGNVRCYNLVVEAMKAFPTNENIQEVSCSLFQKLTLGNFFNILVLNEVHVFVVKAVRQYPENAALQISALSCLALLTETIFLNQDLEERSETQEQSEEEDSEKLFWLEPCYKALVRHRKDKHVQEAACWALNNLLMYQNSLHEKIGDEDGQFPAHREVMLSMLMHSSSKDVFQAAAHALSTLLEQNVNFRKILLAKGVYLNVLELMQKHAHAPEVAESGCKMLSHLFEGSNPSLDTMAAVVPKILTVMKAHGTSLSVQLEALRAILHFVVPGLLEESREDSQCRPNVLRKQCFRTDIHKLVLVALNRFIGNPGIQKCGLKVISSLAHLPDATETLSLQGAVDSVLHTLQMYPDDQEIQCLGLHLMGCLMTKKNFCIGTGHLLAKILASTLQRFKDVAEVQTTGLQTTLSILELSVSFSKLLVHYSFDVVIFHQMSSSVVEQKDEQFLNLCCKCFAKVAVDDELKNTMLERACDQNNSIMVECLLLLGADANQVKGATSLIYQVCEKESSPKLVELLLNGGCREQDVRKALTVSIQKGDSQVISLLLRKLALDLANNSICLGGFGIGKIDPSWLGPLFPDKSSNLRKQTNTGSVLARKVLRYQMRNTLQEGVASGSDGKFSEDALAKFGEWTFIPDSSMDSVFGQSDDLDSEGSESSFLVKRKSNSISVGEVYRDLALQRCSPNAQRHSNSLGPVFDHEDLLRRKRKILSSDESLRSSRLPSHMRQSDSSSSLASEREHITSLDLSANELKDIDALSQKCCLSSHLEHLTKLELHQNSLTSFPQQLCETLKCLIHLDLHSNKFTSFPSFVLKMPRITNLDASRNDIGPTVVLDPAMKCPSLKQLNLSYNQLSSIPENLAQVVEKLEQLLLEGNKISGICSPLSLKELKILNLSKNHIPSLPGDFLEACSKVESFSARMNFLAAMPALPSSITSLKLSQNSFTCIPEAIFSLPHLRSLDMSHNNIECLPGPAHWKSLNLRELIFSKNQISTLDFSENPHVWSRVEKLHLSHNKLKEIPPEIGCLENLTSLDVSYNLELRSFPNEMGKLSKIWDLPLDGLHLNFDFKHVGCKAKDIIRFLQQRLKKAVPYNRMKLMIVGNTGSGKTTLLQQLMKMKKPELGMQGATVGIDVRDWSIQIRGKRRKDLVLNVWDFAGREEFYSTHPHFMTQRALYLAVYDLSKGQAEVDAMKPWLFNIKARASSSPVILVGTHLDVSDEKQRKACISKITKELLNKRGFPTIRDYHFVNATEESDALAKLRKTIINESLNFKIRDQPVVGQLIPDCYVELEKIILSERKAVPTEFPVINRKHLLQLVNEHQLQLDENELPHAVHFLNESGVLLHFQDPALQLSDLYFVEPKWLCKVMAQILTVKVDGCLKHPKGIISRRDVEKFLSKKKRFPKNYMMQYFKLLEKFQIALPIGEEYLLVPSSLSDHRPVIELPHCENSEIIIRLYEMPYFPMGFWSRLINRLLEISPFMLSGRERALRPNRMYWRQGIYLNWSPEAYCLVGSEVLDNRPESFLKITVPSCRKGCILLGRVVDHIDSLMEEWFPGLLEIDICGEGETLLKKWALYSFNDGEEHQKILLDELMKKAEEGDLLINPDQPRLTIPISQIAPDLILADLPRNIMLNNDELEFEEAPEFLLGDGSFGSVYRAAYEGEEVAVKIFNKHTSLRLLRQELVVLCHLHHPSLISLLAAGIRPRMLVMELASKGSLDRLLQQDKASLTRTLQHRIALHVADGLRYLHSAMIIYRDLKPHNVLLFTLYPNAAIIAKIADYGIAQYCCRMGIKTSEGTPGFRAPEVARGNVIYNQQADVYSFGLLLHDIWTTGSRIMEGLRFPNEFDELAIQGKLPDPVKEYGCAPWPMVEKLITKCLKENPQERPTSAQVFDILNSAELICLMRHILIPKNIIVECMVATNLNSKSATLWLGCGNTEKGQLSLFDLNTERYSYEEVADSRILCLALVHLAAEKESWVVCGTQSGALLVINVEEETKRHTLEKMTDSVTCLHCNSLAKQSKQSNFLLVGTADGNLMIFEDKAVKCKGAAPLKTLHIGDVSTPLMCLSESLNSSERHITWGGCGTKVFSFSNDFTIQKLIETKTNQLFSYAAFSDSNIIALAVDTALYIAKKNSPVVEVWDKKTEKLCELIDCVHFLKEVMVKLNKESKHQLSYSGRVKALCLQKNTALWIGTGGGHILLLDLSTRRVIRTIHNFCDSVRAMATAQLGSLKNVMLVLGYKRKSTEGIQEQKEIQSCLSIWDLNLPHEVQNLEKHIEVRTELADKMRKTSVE

CNc1nc(Nc2ccc(C(=O)N3CCN(CCOCCOCCSC(C)(C)[C@H](NC(=O)C4(F)CC4)C(=O)N4C[C@H](O)C[C@H]4C(=O)NCc4ccc(-c5scnc5C)cc4)CC3)cc2OC)ncc1Cl [SD75]
Dmax at 1 µM (WT LRRK2; 1 μM (1000 nM), read-out: Dmax (WT LRRK2), time-dependent degradation): 52%
Dmax (WT LRRK2; dose-dependent degradation, 24 h): 51%
WT-pRab10 percent label at the end of the time curve (Rab10-pThr73; 1 µM): 41%
EC50 (Rab10-pThr73; Mus musculus, 24 h, WT MEFs, read-out: EC50 for the dephosphorylation of Rab10 (WT-pRab10)): 2270 nM
LRRK2 IC50 Permeabilized/IC50 Live (LRRK2-NanoLuc; ratio used to compare permeabilities): 0.43

CNc1nc(Nc2ccc(C(=O)N3CCN(C[C@H]4CC[C@H](CSC(C)(C)[C@H](NC(=O)C5(F)CC5)C(=O)N5C[C@H](O)CC5C(=O)NCc5ccc(-c6scnc6C)cc5)CC4)CC3)cc2OC)ncc1Cl (stereo partly drawn) [XL01126, (2S,4R)-1-((R)-3-((((1R,4R)-4-((4-(4-((5-Chloro-4-(methylamino)pyrimidin-2-yl)amino)-3-methoxybenzoyl)piperazin-1-yl)methyl)cyclohexyl)methyl)thio)-2-(1-fluorocyclopropane-1-carboxamido)-3-methylbutanoyl)-4-hydroxy-N-(4-(4-methylthiazol-5-yl)benzyl)pyrrolidine-2-carboxamide]
DC50 (WT LRRK2; 4 h): 32 nM
WT-pRab10 percent label at the end of the time curve (Rab10-pThr73; 0.3 µM): 94%
EC50 (Rab10-pThr73; Mus musculus, 4 h, WT MEFs, read-out: EC50 WT-pRab10): 54 nM
IC50 (LRRK2-NanoLuc): 2600 nM

CNc1nc(Nc2ccc(C(=O)N3CCN(C[C@H]4CC[C@@H](CSC(C)(C)[C@H](NC(=O)C5(F)CC5)C(=O)N5C[C@H](O)CC5C(=O)NCc5ccc(-c6scnc6C)cc5)CC4)CC3)cc2OC)ncc1Cl (stereo partly drawn) [XL01134]
Dmax at 0.3 µM (WT LRRK2; 300 nM, read-out: Dmax,WT, time-dependent degradation): 75%
DC50 (WT LRRK2; 4 h): 32 nM
WT-pRab10 percent label at the end of the time curve (Rab10-pThr73; 0.3 µM): 88%
IC50 (Rab10-pThr73; Mus musculus, 4 h, WT MEFs, read-out: WT-pRab10 IC50): 74 nM
IC50 (LRRK2-NanoLuc): 2000 nM

CNc1nc(Nc2ccc(C(=O)N3CCN(C[C@H]4CC[C@H](CSC(C)(C)[C@H](NC(=O)C5(F)CC5)C(=O)N5C[C@@H](O)C[C@H]5C(=O)NCc5ccc(-c6scnc6C)cc5)CC4)CC3)cc2OC)ncc1Cl [cis-XL01126, (2S,4S)-1-((R)-3-((((1R,4R)-4-((4-(4-((5-Chloro-4-(methylamino)pyrimidin-2-yl)amino)-3-methoxybenzoyl)piperazin-1-yl)methyl)cyclohexyl)methyl)thio)-2-(1-fluorocyclopropane-1-carboxamido)-3-methylbutanoyl)-4-hydroxy-N-(4-(4-methylthiazol-5-yl)benzyl)pyrrolidine-2-carboxamide]
degradation of WT LRRK2 (in words) (WT LRRK2; 4 h): no degradation
